Source: ChEMBL document CHEMBL1641551, “Glycosylated nordihydroguaiaretic acids as anti-cancer agents” (Bioorg Med Chem Lett, 2011)
Activity calls are given as the source filed them. The rule behind the calls is not given here.

How the values were obtained:
[1] = Cytotoxicity against human Hep3B cells after 3 days by MTT assay; format: functional, cell-based, Hep 3B2; conditions: 72 h
HT-29 = assay: Cytotoxicity against human HT-29 cells after 3 days by MTT assay; format: functional, cell-based
MCF7 = assay: Cytotoxicity against human MCF7 cells after 3 days by MTT assay; format: functional, cell-based
NCI/ADR-RES = assay: Cytotoxicity against human NCI/ADR-RES cells after 3 days by MTT assay; format: functional, cell-based
LNCaP = assay: Cytotoxicity against human LNCAP cells after 3 days by MTT assay; format: functional, cell-based; conditions: 72 h

For `C[C@H](Cc1ccc(OCc2cn(CCCCCCO[C@@H]3O[C@H](CO)[C@@H](O)[C@H](O)[C@H]3O)nn2)c(OCc2cn(CCCCCCO[C@@H]3O[C@H](CO)[C@@H](O)[C@H](O)[C@H]3O)nn2)c1)[C@@H](C)Cc1ccc(OCc2cn(CCCCCCO[C@@H]3O[C@H](CO)[C@@H](O)[C@H](O)[C@H]3O)nn2)c(OCc2cn(CCCCCCO[C@@H]3O[C@H](CO)[C@@H](O)[C@H](O)[C@H]3O)nn2)c1`, the IC50 [1] was 83 µM, the Activity (HT-29) was “inactive” and the Activity (MCF7) was “inactive”. For the same compound, the Activity (NCI/ADR-RES) was “inactive”.
In the case of `C[C@H](Cc1ccc(OCc2cn(CCCCCCO)nn2)c(OCc2cn(CCCCCCO)nn2)c1)[C@@H](C)Cc1ccc(OCc2cn(CCCCCCO)nn2)c(OCc2cn(CCCCCCO)nn2)c1`, the Activity (HT-29) is reported as “inactive”, the Activity (MCF7) is reported as “inactive” and the Activity (NCI/ADR-RES) is reported as “inactive”.
Compound `COc1ccc(C[C@@H](C)[C@@H](C)Cc2ccc(OC)c(OC)c2)cc1OC` [TERAMEPROCOL] has an IC50 [1] of no more than 10 µM, an IC50 (LNCaP) of no more than 10 µM and an IC50 (HT-29; HT-29, 72 h) of no more than 10 µM. The IC50 (MCF7; MCF7, 72 h) was no more than 10 µM and the IC50 (NCI/ADR-RES; 72 h) was no more than 10 µM.
For `C[C@H](Cc1ccc(OCc2cn(CCO)nn2)c(OCc2cn(CCO)nn2)c1)[C@@H](C)Cc1ccc(OCc2cn(CCO)nn2)c(OCc2cn(CCO)nn2)c1`, the Activity (HT-29) was “inactive”, the Activity (MCF7) was “inactive” and the Activity (NCI/ADR-RES) was “inactive”.
With `C[C@H](Cc1ccc(OCc2cn(CCCCCCO[C@@H]3O[C@H](CO)[C@H](O)[C@H](O)[C@H]3O)nn2)c(OCc2cn(CCCCCCO[C@@H]3O[C@H](CO)[C@H](O)[C@H](O)[C@H]3O)nn2)c1)[C@@H](C)Cc1ccc(OCc2cn(CCCCCCO[C@@H]3O[C@H](CO)[C@H](O)[C@H](O)[C@H]3O)nn2)c(OCc2cn(CCCCCCO[C@@H]3O[C@H](CO)[C@H](O)[C@H](O)[C@H]3O)nn2)c1` the IC50 [1] was 88 µM, the Activity (HT-29) was “inactive” and the Activity (MCF7) was “inactive”. The Activity (NCI/ADR-RES) was “inactive”.
With `C[C@H](Cc1ccc(OCc2cn(CCO[C@@H]3O[C@H](CO)[C@H](O)[C@H](O)[C@H]3O)nn2)c(OCc2cn(CCO[C@@H]3O[C@H](CO)[C@H](O)[C@H](O)[C@H]3O)nn2)c1)[C@@H](C)Cc1ccc(OCc2cn(CCO[C@@H]3O[C@H](CO)[C@H](O)[C@H](O)[C@H]3O)nn2)c(OCc2cn(CCO[C@@H]3O[C@H](CO)[C@H](O)[C@H](O)[C@H]3O)nn2)c1` the Activity (HT-29) was “inactive”, the Activity (MCF7) was “inactive” and the Activity (NCI/ADR-RES) was “inactive”.
